The text below walks through data of patent US20150210729A1, “MACROLIDE DERIVATIVES, PREPARATION THEREOF AND THERAPEUTIC USE THEREOF” (priority 2012, published 2015).

Assay [1] relates to Mycobacterium tuberculosis H37Rv. The experiment in a line: Alamar blue (MABA) test, MIC on Mycobacterium tuberculosis H37Rv. The class given is cell-based. To be noted: minimum inhibitory concentration, Alamar blue, strain H37Rv, read-out: MIC (μM) MTb H37Rv. In general terms: The colour change of resazurin is a common sign of viable cells or microbes.
For another assay, the system named is Streptococcus pneumoniae. As to the kind of experiment: ATP bioluminescence test, inhibition of bacterial growth of Streptococcus pneumoniae (IC80). The class given is cell-based. The following applies: read-out: IC80 (μM) S. pneumoniae. The method, then:
Measurement of the Inhibitory Activity (IC80) of the Compounds According to the Invention Towards Streptococcus pneumoniae
The test used is a bioluminescence test, the aim of which is to measure the inhibition of bacterial growth of Streptococcus pneumoniae by quantification of the amount of adenosine triphosphate (ATP). Specifically, ATP is a major and mandatory energy intermediate of very many reactions of cell metabolism which characterizes live media.
ATP quantification is performed at the end of the test by using an enzyme, luciferase, which, in the presence of ATP and of a specific substrate, luciferin, produces quantifiable light.
Thus, in the presence of luciferin and luciferase at […] concentrations, the value obtained in relative light units (RLU) will make it possible, by means of a calibration, to estimate the amount of ATP and thus deduce the number of live bacteria at the end of the incubation period.
Thus, the more the RLU value obtained at the end of the test tends towards zero, the more the product inhibits the total growth of bacteria.
The results (Table 3) are expressed in IC80.

The mark [2] stands for this setting: 80% inhibition of bacterial growth, ATP/luciferase readout.

Converted amounts (≈) assume the structure as drawn. Like-named read-outs stand apart in the source and are kept apart here.

Usually MIC stands for the smallest concentration in the dilution series that meets the test's criterion for growth inhibition. Usually IC80 stands for the point of the concentration-response curve where the effect stands at 80%.

In the case of `CON=C1C[C@@H](C)O[C@@H](O[C@@H]2[C@@H](C)[C@H](O[C@H]3C[C@@H](C)NC[C@H](C)O3)[C@@H](C)C(=O)O[C@H](C(C)CO[C@@H]3O[C@H](C)[C@@H](O)[C@@H](OC)[C@H]3OC)[C@H](C)[C@@H](OC(=O)CC(C)C)[C@@H](C)C(=O)[C@@](C)(OC(=O)NCc3ccccc3)C[C@@H]2C)[C@@H]1O` (single isomer, unassigned) [Compound 8-a], the MIC in assay [1] was 0.56 µM (≈ 0.621 µg/mL). For the same molecule, in the assay on Streptococcus pneumoniae (setting [2]), the IC80 stood at 1.84 µM. For `CON=C1C[C@@H](C)O[C@@H](O[C@@H]2[C@@H](C)[C@H](O[C@H]3C[C@H](C)N(C)C[C@H](C)O3)[C@@H](C)C(=O)O[C@H](C(C)CO[C@@H]3O[C@H](C)[C@@H](O)[C@@H](OC)[C@H]3OC)[C@H](C)[C@@H](OC(=O)CC(C)C)[C@@H](C)C(=O)[C@@](C)(OC(=O)NCCc3ccncc3)C[C@@H]2C)[C@@H]1O` (stereo partly drawn) [Compound 2, (2R,3S,4R,5R,7S,9S,10S,11R,12S,13R)-2-(1-{[(2R,3R,4R,5R,6R)-5-hydroxy-3,4-dimethoxy-6-methyltetrahydro-2H-pyran-2-yl]oxy}propan-2-yl)-10-{[(2S,3R,6R)-3-hydroxy-4-(methoxyimino)-6-methyltetrahydro-2H-pyran-2-yl]oxy}-3,5,7,9,11,13-hexamethyl-6,14-dioxo-7-({[2-(pyridin-4-yl)ethyl]carbamoyl}oxy)-12-{[(2S,5S,7R)-2,4,5-trimethyl-1,4-oxazepan-7-yl]oxy}oxacyclotetradecan-4-yl 3-methylbutanoate] the same measures were 1.25 µM (≈ 1.42 µg/mL) and 0.28 µM.

With `CON=C1C[C@@H](C)O[C@@H](O[C@@H]2[C@@H](C)[C@H](O[C@H]3C[C@H](C)N(C)C[C@H](C)O3)[C@@H](C)C(=O)O[C@H]([C@@H](C)CO[C@@H]3O[C@H](C)[C@@H](O)[C@@H](OC)[C@H]3OC)[C@H](C)[C@@H](OC(=O)CC(C)C)[C@@H](C)C(=O)[C@@](C)(OC(=O)NC(C)(C)CNC(=O)c3cnc(O)cn3)C[C@@H]2C)[C@@H]1O` [Compound 14], the MIC in assay [1] was 0.67 µM (≈ 0.821 µg/mL). Further, the IC80 in the assay on Streptococcus pneumoniae (setting [2]) is 2.27 µM. Consider `CON=C1C[C@@H](C)O[C@@H](O[C@@H]2[C@@H](C)[C@H](O[C@H]3C[C@H](C)N(CCc4ccncc4)C[C@H](C)O3)[C@@H](C)C(=O)OC([C@@H](C)CO[C@@H]3O[C@H](C)[C@@H](O)[C@@H](OC)[C@H]3OC)[C@H](C)[C@@H](OC(=O)CC(C)C)[C@@H](C)C(=O)[C@@](C)(OC(=O)NCc3ccccc3)C[C@@H]2C)[C@@H]1O` (stereo partly drawn) [Compound 24], for which the MIC in assay [1] was found to be 0.48 µM (≈ 0.582 µg/mL). Further, in the assay with Streptococcus pneumoniae (setting [2]), the 80% effect concentration (IC80) was found to be 0.88 µM. For `CON=C1C[C@@H](C)O[C@@H](O[C@@H]2[C@@H](C)[C@H](O[C@H]3C[C@@H](C)N(C)C[C@H](C)O3)[C@@H](C)C(=O)OC([C@@H](C)CO[C@@H]3O[C@H](C)[C@@H](O)[C@@H](OC)[C@H]3OC)[C@H](C)[C@@H](OC(=O)CC(C)C)[C@@H](C)C(=O)[C@@](C)(OC(=O)NCCNc3ccnc4cc(Cl)ccc34)C[C@@H]2C)[C@@H]1O` (stereo partly drawn) [Compound 26], in that order: 0.78 µM (≈ 0.965 µg/mL) and 0.69 µM. For `CON=C1C[C@@H](C)O[C@@H](O[C@@H]2[C@@H](C)[C@H](O[C@H]3C[C@H](C)N(Cc4ccccc4)C[C@H](C)O3)[C@@H](C)C(=O)OC([C@@H](C)CO[C@@H]3O[C@H](C)[C@@H](O)[C@@H](OC)[C@H]3OC)[C@H](C)[C@@H](OC(=O)CC(C)C)[C@@H](C)C(=O)[C@@](C)(OC(=O)NCCNC(=O)c3cnc(O)cn3)C[C@@H]2C)[C@@H]1O` (stereo partly drawn) [Compound 33] the same measures were 0.35 µM (≈ 0.446 µg/mL) and 1.34 µM. For `CON=C1C[C@@H](C)O[C@@H](O[C@@H]2[C@@H](C)[C@H](O[C@H]3CC(C)N(C4CC4)C[C@H](C)O3)[C@@H](C)C(=O)OC([C@@H](C)CO[C@@H]3O[C@H](C)[C@@H](O)[C@@H](OC)[C@H]3OC)[C@H](C)[C@@H](OC(=O)CC(C)C)[C@@H](C)C(=O)[C@@](C)(OC(=O)NCc3ccccc3)C[C@@H]2C)[C@@H]1O` (stereo partly drawn) [Compound 35] the same measures were 0.36 µM (≈ 0.413 µg/mL) and 1.81 µM. On to `CN[C@H](CC(C)C)C(=O)N[C@H]1C(=O)N[C@@H](CC(N)=O)C(=O)N[C@H]2C(=O)N[C@H]3C(=O)N[C@H](C(=O)N[C@H](C(=O)O)c4cc(O)cc(O)c4-c4cc3ccc4O)[C@H](O)c3ccc(c(Cl)c3)Oc3cc2cc(c3O[C@@H]2O[C@H](CO)[C@@H](O)[C@H](O)[C@H]2O[C@H]2C[C@](C)(N)[C@H](O)[C@H](C)O2)Oc2ccc(cc2Cl)[C@H]1O` [vancomycin, reference compound], for which, in the assay with Streptococcus pneumoniae, the concentration for an effect of 80% (IC80) was determined as 0.14 µM.
